Data published in patent publication US9387231B2, “Compositions comprising a Brd4 antagonist and methods for the treatment of HIV” (THE CHILDREN'S HOSPITAL OF PHILADELPHIA, priority 2011, dated 2016).

System: Primary CD4 T-cells
Experiment: Cell death of HIV-infected primary CD4 T-cells (FSC/SSC)
Type: cell-based
Details: primary activated CD4 T-cells infected with NL43 or SG3, 0.1 μM, days 3-13
Experimental: Primary CD4 T-cells were activated with anti-CD3/28, then infected with HIV, NL43 or SG3, and cultured in the presence of JQ1(+) (1 μM or 0.1 μM) or media. At days 3, 6, 10 and 13 after infection, cell death was measured by percent of FSC/SSC (forward scatter/side scatter) as indicated in individual plots (FIGS. 8A and 8C). The expression of p24 in live cells was examined by flow cytometry and is shown as the percentage of p24+ cells (FIGS. 8B and 8D).
Of note, mean fluorescence of p24 was unchanged in the presence of the active inhibitor, indicating there was not a non-specific toxic drug effect and supporting the observation that BET antagonism inhibits HIV production at late time points of infection in primary activated CD4 T-cells.

Structure (SMILES): Cc1sc2c(c1C)C(c1ccc(Cl)cc1)=N[C@@H](CC(=O)OC(C)(C)C)c1nnc(C)n1-2 [JQ1(+), tert-butyl 2-((6S)-4-(4-chlorophenyl)-2,3,9-trimethyl-6H-thieno[3,2-f][1,2,4]triazolo[4,3-a][1,4]diazepin-6-yl)acetate]
- Cell death: did not cause cell death above control values
